# Reference: patent US20230096766A1, “AMINO ACID HAVING FUNCTIONAL GROUP CAPABLE OF INTERMOLECULAR HYDROGEN BONDING, PEPTIDE COMPOUND CONTAINING SAME AND METHOD FOR PRODUCTION THEREOF” (Chugai Seiyaku Kabushiki Kaisha, priority 2018, published 2023)
# *1 amine or outer side, *2 acyl side, *3 side chain or, on linkers, in order; H or OH if unused. Where a SMILES comes first, the peptide text is derived from it. Bridges are numbered along the chain shown (N, C = ends). [ ]: non-standard residue; d: D form. The star is where a group is joined. ξ: configuration not given here. Phe(3-OMe,4-CONHMs) = COc1cc(C[C@H](N)C(=O)O)ccc1C(=O)NS(C)(=O)=O; hPhe(3-OMe,4-CONHMe) = CNC(=O)c1ccc(CC[C@H](N)C(=O)O)cc1OC; NMePhe(3-Cl) = CN[C@@H](Cc1cccc(Cl)c1)C(=O)O; X9 = O=C([C@@H](CN[*:1])COCCO)[*:2]; NMeF = CN[C@@H](Cc1ccccc1)C(=O)O; NMeGABA = CN(CCCC(=O)[*:2])[*:1]; NMeI = CC[C@H](C)[C@H](NC)C(=O)O; NMeL = CN[C@@H](CC(C)C)C(=O)O; ξNMeF = CNC(Cc1ccccc1)C(=O)O; NMeV = CN[C@H](C(=O)O)C(C)C; NMeAbu = CC[C@H](NC)C(=O)O; Piperidide = C1CCN(*)CC1; Abu = CC[C@H](N)C(=O)O; NBuGly = CCCCNCC(=O)O; ξL = CC(C)CC(N)C(=O)O; NPrGly = CCCNCC(=O)O; Sar = CNCC(=O)O; tBu = CC(C)(C)*
# Assay: in vitro
# Conditions: human, Caco-2, Caco-2 (cm/sec)
row,SMILES,Papp [nm/s]
1,CC(C)C[C@@H]1NC(=O)[C@H](CC(C)C)N(C)C(=O)[C@H](Cc2cccc(Cl)c2)N(C)C(=O)[C@H](COCCO)CNC(=O)[C@H](CC(C)C)N(C)C(=O)CCCN(C)C(=O)C[C@@H](C(=O)N2CCCCC2)NC(=O)[C@H](CC(C)C)N(C)C(=O)[C@H](CC(C)C)N(C)C(=O)[C@H]([C@@H](C)O)NC(=O)[C@H](CC(C)C)N(C)C1=O [AP129] ([NMeGABA][NMeL][X9][NMePhe(3-Cl)][NMeL]L[NMeL]T[NMeL][NMeL]D-Piperidide; lactam N-11),4.6
2,CC[C@H](C)[C@@H]1NC(=O)[C@H](CC(C)C)N(C)C(=O)CCCN(C)C(=O)C[C@@H](C(=O)N2CCCCC2)NC(=O)[C@H](CC(C)C)N(C)C(=O)[C@H](CC(C)C)N(C)C(=O)[C@H]([C@@H](C)O)NC(=O)[C@H](CC(C)C)N(C)C(=O)[C@H](COCCO)CNC(=O)[C@H](CC(C)C)N(C)C(=O)[C@H](Cc2cccc(Cl)c2)N(C)C1=O [AP130] ([NMeGABA][NMeL]I[NMePhe(3-Cl)][NMeL][X9][NMeL]T[NMeL][NMeL]D-Piperidide; lactam N-11),4.6
3,CCCCN1CC(=O)N(C)[C@@H](CC(C)C)C(=O)N[C@H](C(=O)N2CCCCC2)CC(=O)N(C)[C@@H](CC(C)C)C(=O)NC[C@@H](COCCO)C(=O)N(C)[C@@H](CC(C)C)C(=O)N(C)[C@@H](Cc2ccccc2)C(=O)N[C@@H](CC(C)C)C(=O)N(C)[C@@H](Cc2ccccc2)C(=O)N(C)[C@@H](CC(C)C)C(=O)N[C@@H]([C@@H](C)O)C1=O [AP131] ([NMeL][X9][NMeL][NMeF]L[NMeF][NMeL]T[NBuGly][NMeL]D-Piperidide; lactam N-11),11
4,CCCCN1CC(=O)N(C)[C@@H](Cc2ccccc2)C(=O)NC[C@@H](COCCO)C(=O)N(C)[C@@H](CC(C)C)C(=O)N[C@@H]([C@@H](C)O)C(=O)N(CCC)CC(=O)N(C)[C@@H](Cc2ccccc2)C(=O)N(C)[C@@H](CC(C)C)C(=O)N[C@@H](CC(C)C)C(=O)N(C)[C@@H](CC(C)C)C(=O)N[C@H](C(=O)N2CCCCC2)CC1=O [AP133] ([NBuGly][NMeF][X9][NMeL]T[NPrGly][NMeF][NMeL]L[NMeL]D-Piperidide; lactam N-11),18
5,CCCCN1CC(=O)N(C)[C@@H](Cc2ccccc2)C(=O)N[C@@H]([C@@H](C)CC)C(=O)N(C)[C@@H](CC(C)C)C(=O)N[C@@H]([C@@H](C)O)C(=O)N(CCC)CC(=O)N(C)[C@@H](Cc2ccccc2)C(=O)N(C)[C@@H](CC(C)C)C(=O)NC[C@@H](COCCO)C(=O)N(C)[C@@H](CC(C)C)C(=O)N[C@H](C(=O)N2CCCCC2)CC1=O [AP134] ([NBuGly][NMeF]I[NMeL]T[NPrGly][NMeF][NMeL][X9][NMeL]D-Piperidide; lactam N-11),6.2
6,"CCCCN1CC(=O)N(C)[C@@H](CC(C)C)C(=O)N[C@@H](COC(C)(C)C)C(=O)N(C)[C@@H](Cc2ccccc2)C(=O)N(C)[C@@H](CC(C)C)C(=O)N[C@H](C(=O)N2CCCCC2)CC(=O)N[C@H](C(C)C)C(=O)N(C)[C@@H](C(C)C)C(=O)N[C@@H](Cc2ccc(C(=O)NS(C)(=O)=O)c(OC)c2)C(=O)N(C)[C@@H](CC(C)C)C(=O)N[C@@H]([C@@H](C)O)C1=O [AP135] ([dV][NMeV][Phe(3-OMe,4-CONHMs)][NMeL]T[NBuGly][NMeL]S(tBu)[NMeF][NMeL]D-Piperidide; lactam N-11)",8.8
7,"CCCCN1CC(=O)N(C)[C@@H](CC(C)C)C(=O)N[C@@H](Cc2ccc(C(=O)NS(C)(=O)=O)c(OC)c2)C(=O)N(C)[C@@H](CC(C)C)C(=O)N(C)[C@@H](CC(C)C)C(=O)N[C@H](C(=O)N2CCCCC2)CC(=O)N[C@H](CC(C)C)C(=O)N(C)[C@@H](Cc2ccccc2)C(=O)N[C@@H](C(C)C)C(=O)N(C)[C@@H](CC(C)C)C(=O)N[C@@H]([C@@H](C)O)C1=O [AP136] ([dL][NMeF]V[NMeL]T[NBuGly][NMeL][Phe(3-OMe,4-CONHMs)][NMeL][NMeL]D-Piperidide; lactam N-11)",4.7
8,"CCCCN1CC(=O)N(C)[C@@H](CC(C)C)C(=O)N[C@@H](COC(C)(C)C)C(=O)N(C)[C@@H]([C@@H](C)CC)C(=O)N(C)[C@@H](CC(C)C)C(=O)N[C@H](C(=O)N2CCCCC2)CC(=O)N[C@H](C)C(=O)N(C)[C@@H](Cc2ccccc2)C(=O)N[C@@H](Cc2ccc(C(=O)NS(C)(=O)=O)c(OC)c2)C(=O)N(C)[C@@H](CC(C)C)C(=O)N[C@@H]([C@@H](C)O)C1=O [AP137] ([dA][NMeF][Phe(3-OMe,4-CONHMs)][NMeL]T[NBuGly][NMeL]S(tBu)[NMeI][NMeL]D-Piperidide; lactam N-11)",< 2.9
9,"CC[C@H](C)[C@@H]1NC(=O)[C@H](CC(C)C)N(C)C(=O)CCCN(C)C(=O)C[C@@H](C(=O)N2CCCCC2)NC(=O)[C@H](CC(C)C)N(C)C(=O)[C@H](CC(C)C)N(C)C(=O)[C@H]([C@@H](C)O)NC(=O)[C@H](CC(C)C)N(C)C(=O)[C@H](Cc2ccc(C(=O)NS(C)(=O)=O)c(OC)c2)NC(=O)[C@H](CC(C)C)N(C)C(=O)[C@H](Cc2ccccc2)N(C)C1=O [AP138] ([NMeGABA][NMeL]I[NMeF][NMeL][Phe(3-OMe,4-CONHMs)][NMeL]T[NMeL][NMeL]D-Piperidide; lactam N-11)",0.6
10,"CCCCN1CC(=O)N(C)[C@@H](CC(C)C)C(=O)N(C)[C@@H](CC(C)C)C(=O)N[C@@H](COC(C)(C)C)C(=O)N(C)[C@@H](CC(C)C)C(=O)N[C@H](C(=O)N2CCCCC2)CC(=O)N(C)CC(=O)N(C)[C@@H](Cc2cccc(Cl)c2)C(=O)N[C@@H](Cc2ccc(C(=O)NS(C)(=O)=O)c(OC)c2)C(=O)N(C)[C@@H](CC(C)C)C(=O)N[C@@H]([C@@H](C)O)C1=O [AP140] ([Sar][NMePhe(3-Cl)][Phe(3-OMe,4-CONHMs)][NMeL]T[NBuGly][NMeL][NMeL]S(tBu)[NMeL]D-Piperidide; lactam N-11)",4.9
11,"COc1cc(C[C@@H]2NC(=O)[C@H](CC(C)C)N(C)C(=O)[C@H](COC(C)(C)C)NC(=O)[C@H](Cc3ccccc3)N(C)C(=O)[C@H](CC(C)C)N(C)C(=O)[C@H](C)NC(=O)[C@H](CC(C)C)N(C)C(=O)CCCN(C)C(=O)C[C@@H](C(=O)N3CCCCC3)NC(=O)[C@H](CC(C)C)N(C)C(=O)[C@H](CC(C)C)N(C)C2=O)ccc1C(=O)NS(C)(=O)=O [AP141] ([NMeGABA][NMeL]A[NMeL][NMeF]S(tBu)[NMeL][Phe(3-OMe,4-CONHMs)][NMeL][NMeL]D-Piperidide; lactam N-11)",< 2.7
12,"COc1cc(C[C@@H]2NC(=O)[C@H](C(C)C)N(C)C(=O)[C@H](CC(C)C)N(C)C(=O)C(CC(C)C)NC(=O)[C@H](CC(C)C)N(C)C(=O)[C@H](CC(C)C)N(C)C(=O)[C@H](C)NC(=O)[C@H](CC(C)C)N(C)C(=O)C[C@@H](C(=O)N3CCCCC3)NC(=O)[C@H](CC(C)C)N(C)C(=O)CN(C)C2=O)ccc1C(=O)NS(C)(=O)=O (stereo partly drawn) [AP142] ([NMeL]A[NMeL][NMeL][ξL][NMeL][NMeV][Phe(3-OMe,4-CONHMs)][Sar][NMeL]D-Piperidide; lactam N-11)",6.3
13,"CC[C@@H]1NC(=O)[C@H](CC(C)C)N(C)C(=O)[C@H](Cc2ccccc2)N(C)C(=O)CN(C)C(=O)[C@H](Cc2ccc(C(=O)NS(C)(=O)=O)c(OC)c2)NC(=O)[C@H](CC(C)C)N(C)C(=O)[C@H](C(C)C)NC(=O)[C@H](CC(C)C)N(C)C(=O)CN(C)C(=O)C[C@@H](C(=O)N2CCCCC2)NC(=O)[C@H](CC(C)C)N(C)C1=O [AP143] ([Sar][NMeL]V[NMeL][Phe(3-OMe,4-CONHMs)][Sar][NMeF][NMeL][Abu][NMeL]D-Piperidide; lactam N-11)",1.3
14,"CNC(=O)c1ccc(CC[C@@H]2NC(=O)[C@H](CC(C)C)N(C)C(=O)CN(C)C(=O)[C@H]([C@@H](C)O)NC(=O)[C@H](CC(C)C)N(C)C(=O)[C@H](CC(C)C)NC(=O)[C@H](Cc3ccccc3)N(C)C(=O)[C@@H](C(C)C)NC(=O)C[C@@H](C(=O)N3CCCCC3)NC(=O)[C@H](CC(C)C)N(C)C(=O)[C@H](CC(C)C)N(C)C2=O)cc1OC [AP200] ([dV][NMeF]L[NMeL]T[Sar][NMeL][hPhe(3-OMe,4-CONHMe)][NMeL][NMeL]D-Piperidide; lactam N-11)",8.8
15,"CCCCN1CC(=O)N(C)[C@@H](CC(C)C)C(=O)N[C@@H](COC(C)(C)C)C(=O)N(C)[C@@H](CC(C)C)C(=O)N(C)[C@@H](CC)C(=O)N[C@H](C(=O)N2CCCCC2)CC(=O)N[C@H](CC(C)C)C(=O)N(C)[C@@H](Cc2ccccc2)C(=O)N[C@@H](CCc2ccc(C(=O)NC)c(OC)c2)C(=O)N(C)[C@@H](CC(C)C)C(=O)N[C@@H]([C@@H](C)O)C1=O [AP201] ([dL][NMeF][hPhe(3-OMe,4-CONHMe)][NMeL]T[NBuGly][NMeL]S(tBu)[NMeL][NMeAbu]D-Piperidide; lactam N-11)",3.5
16,"CC[C@H](C)[C@@H]1NC(=O)[C@H](CC(C)C)N(C)C(=O)CCCN(C)C(=O)C[C@@H](C(=O)N2CCCCC2)NC(=O)[C@H](CC(C)C)N(C)C(=O)[C@H](CC(C)C)N(C)C(=O)[C@H]([C@@H](C)O)NC(=O)[C@H](CC(C)C)N(C)C(=O)[C@H](CCc2ccc(C(=O)NC)c(OC)c2)NC(=O)[C@H](CC(C)C)N(C)C(=O)[C@H](Cc2ccccc2)N(C)C1=O [AP202] ([NMeGABA][NMeL]I[NMeF][NMeL][hPhe(3-OMe,4-CONHMe)][NMeL]T[NMeL][NMeL]D-Piperidide; lactam N-11)",1.8
17,"CNC(=O)c1ccc(CC[C@@H]2NC(=O)[C@H](CC(C)C)N(C)C(=O)CCCN(C)C(=O)C[C@@H](C(=O)N3CCCCC3)NC(=O)[C@H](CC(C)C)N(C)C(=O)[C@H](CC(C)C)N(C)C(=O)[C@H]([C@@H](C)O)NC(=O)[C@H](CC(C)C)N(C)C(=O)[C@H](COC(C)(C)C)NC(=O)[C@H](Cc3ccccc3)N(C)C(=O)[C@H](CC(C)C)N(C)C2=O)cc1OC [AP203] ([NMeGABA][NMeL][hPhe(3-OMe,4-CONHMe)][NMeL][NMeF]S(tBu)[NMeL]T[NMeL][NMeL]D-Piperidide; lactam N-11)",4.1
18,"CC[C@H]1C(=O)N[C@@H](CC(C)C)C(=O)N(C)[C@@H](CC(C)C)C(=O)N(C)C(Cc2ccccc2)C(=O)N[C@@H](CCc2ccc(C(=O)NC)c(OC)c2)C(=O)N(C)[C@@H](CC(C)C)C(=O)N(C)[C@@H](CC(C)C)C(=O)N[C@@H]([C@@H](C)O)C(=O)N(C)CC(=O)N(C)[C@@H](CC(C)C)C(=O)N[C@H](C(=O)N2CCCCC2)CC(=O)N1C (stereo partly drawn) [AP204] ([NMeAbu]L[NMeL][ξNMeF][hPhe(3-OMe,4-CONHMe)][NMeL][NMeL]T[Sar][NMeL]D-Piperidide; lactam N-11)",16
